Legend:
X-ALD mice = details: mouse, in vivo; cited from earlier work
Solubility and stability = type: physicochemical
[1] = three boys, 140 mg/kg/day i.v. then 70 mg/kg four times daily orally; cited from earlier work
[2] = mouse, in vivo; cited from earlier work
[3] = in vivo; cited from earlier work
[4] = in vivo; cited from earlier work; remark: listed apart in the source
TNF-alpha = assay: VLCFA-induced TNF-alpha in patient-derived macrophages treated with D4PBA; type: cell-based, human; details: 300 micromolar; controls, cerebral ALD and AMN patients
Procedure: In a further experiment, peripheral blood mononucleocytes were derived from a cerebral ALD patient, two AMN and one control subject differentiated in culture using same protocol as above for D-NAC therapy. On day 3, cells were treated with various doses of D4-PBA, and then again on day 5, and day 7. On day 7, macrophages were again stimulated with very long chain fatty acids (VLCFA) as in the D-NAC macrophage study mentioned above. Cells were then harvested at 6 h after stimulation.

[5] = tested on: cells from X-ALD patients and X-ALD knockout mice; details: cited from earlier work
[6] = tested on: primary fibroblasts from male patients with cerebral ALD or AMN; assay: LysoPC C26/C22 ratio in ALD/AMN patient-derived fibroblasts; type: cell-based, human; details: 100 μM free 4PBA
Procedure: Primary fibroblasts from male patients with either cerebral adrenoleukodystrophy (ALD) or adrenomyeloneuropathy (AMN) phenotype were thawed and plated in wells to grow for 4 days. On the 4th day cells were treated with various doses of Dendrimer-4phenylbutyrate (D4PBA) or free 4PBA and maintained in the culture, the treatment was refreshed on Day 7. Cells were harvested for analysis on Day 11. The C26:0, C22:0, and C20:0 very long chain fatty acid fraction of lysophosphatidyl choline (LysoPC) was measured in the harvested cells and the Lyso PC C26/C22 fraction was then calculated as a measure of impaired peroxisomal beta-oxidation.

SMILES: Oc1ccc(C=Cc2cc(O)cc(O)c2)cc1 [Resveratrol]
- Redox homeostasis, mitochondrial respiration, axonal degeneration, locomotor disabilities (X-ALD mice): normalize redox homeostasis, mitochondrial respiration, bioenergetic failure, axonal degeneration and associated locomotor disabilities in the X-ALD mice

SMILES: CC(C)(Oc1ccc(CCNC(=O)c2ccc(Cl)cc2)cc1)C(=O)O [Bezafibrate]
- Water solubility (Solubility and stability): water insoluble

SMILES: CC(=O)N[C@@H](CS)C(=O)O [NAC, N-acetyl-L-cysteine]
- MRI progression in advanced ccALD [1]: slowing of MRI progression and reversal of gadolinium-contrast enhancement on MRI

SMILES: C[C@@H]1C[C@H]2[C@@H]3CCC4=CC(=O)C=C[C@]4(C)C3=CC[C@]2(C)[C@@]1(O)C(=O)CO [VBP15]
- Muscular dystrophy [2]: improves muscular dystrophy without side effects

SMILES: Cc1cc(OCC(=O)O)cc(C)c1Cc1ccc(O)c(C(C)C)c1 [sobetirome]
- Plasma LDL cholesterol and triglycerides in humans [3]: lowers plasma LDL cholesterol and reduces plasma triglycerides
- Serum lipids and cholesterol in animal models [4]: reduced serum lipids, decreased cholesterol levels

SMILES: O=C(O)CCCc1ccccc1 [Free 4PBA, 4-phenyl butyric acid]
- Water solubility (Solubility and stability): water insoluble
- VLCFA-induced TNF-alpha response, free drug (TNF-alpha): reduced the VLCFA-induced TNF-alpha response
- Very-long-chain fatty acid levels and beta-oxidation [5]: decreased levels of and increased beta-oxidation of very-long-chain fatty acids
- LysoPC C26/C22 ratio, free drug [6]: no effect

Reference: US20170119899A1, “COMPOSITIONS AND METHODS FOR TREATMENT OF PEROXISOMAL DISORDERS AND LEUKODYSTROPHIES” (The Johns Hopkins University, priority 2015, published 2017)
